Results on two compounds are retold here after patent US20140323593A1, “METHODS AND APPARATUS FOR THE CONTROL OF ADENOSINE TRIPHOSPHATE SYNTHASE ACTIVITY WITHIN LIVING ORGANISMS, AND CONDITIONING OF WATER-BASED FLUIDS AND SUBSTANCES USING MAGNETIC FIELD EXPOSURES OR THEIR WITHDRAWAL” (priority 2013, published 2014).

Test [1] concerns 60 cancer cell lines maintained by the US National Cancer Institute (NCI-60). The following applies: mean over NCI-60 cell lines; read-out: IC50 (the concentration inhibiting proliferation rate by 50%), mean; cited from earlier work.
The test system of another test is leukemic cell K562. Nature of the test: average reductions in chromosome numbers (karyotype contraction) in K562. In kind it is cell-based, human. From the text:
First, we observed that 5 different cancer cell lines representative of the most common human cancers display a reduction in their chromosome numbers when exposed to 60-Hz MFs (Appendix 1). Reductions in chromosome numbers result from metabolic restriction (Li et al., 2012), which can be caused by impaired ATPS function.
Fourth, Russian physicists (Semikhina and Kiselev, 1981) observed resonances for water at specific frequency-amplitude combinations that are broadened by the presence of even small levels of impurities. They detected one maximum at 156.2-Hz and 15.45 μT for 7° C. pure water (Semikhina et al, 1988). In our experiments compiling average chromosome losses over frequency in anoxic K562 (5% carbon dioxide and 37° C.) 6-day tests at 1 μT, a wide resonance was measured as follows: −3.6±0.79 at 50-Hz, −9.36±1.06 at 60-Hz, −12.71±1.82 at 120-Hz and −9.8±1.31 at 155-Hz. […] The ATPS resonance at […] we documented is indeed wider than that reported by Semikhina for pure water. […]
Our laboratory has detected ATPSI at all tested frequencies and at all MF intensities above 25 nT using measurements of karyotype contraction (see Appendix 1) in numerous cell lines: K562 and HEL (erythro-leukemias). […] In our experiments, ATPSI detected by karyotype contractions varied only weakly with field intensities between 25 nT and 5 μT, but probably cover the range of 10 nT to 879 μT. […]

The structures appear in SMILES notation.

In the case of `CC[C@H]1/C=C/C=C/C[C@@H](C)[C@H](O)[C@@](C)(O)C(=O)[C@@H](C)[C@H](O)[C@@H](C)C(=O)[C@@H](C)[C@H](O)[C@@H](C)/C=C/C(=O)O[C@@H]2[C@H](C)[C@H](CC1)O[C@]1(CC[C@H](C)[C@H](C[C@@H](C)O)O1)[C@H]2C` [oligomycin], the IC50 in test [1] was 300 nM.
Take `CN(C)C(=N)N=C(N)N` [Metformin]: the “average reductions in chromosome numbers” value in the test on leukemic cell K562 (K562, substance alone for 3 days, metformin 0.01 mg/l, resistin 40 ng/l) was determined as 9. Also, the “average reductions in chromosome numbers (losses) with 1 μT added” value in the test with leukemic cell K562 (K562, 1 μT magnetic field added to metformin 0.01 mg/l or resistin 40 ng/l, 1 μT alone 7.5) was 11±0.34.
